What follows are compounds tested on SK-MEL-5 TRPM1-promoter luciferase reporter, 24 h (assay: reducers of TRPM1 reporter luminescence, concentration series – cell-based, SK-MEL-5, cherry-picked, set 4, MITF inhibitor project, dose response (AID 493102);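 further: actives lower the luciferase signal so the potency reflects inhibition of reporter expression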).
With `COCCCn1[nH]c2c3c(ccc2c1=O)C(=O)c1ccccc1C3=O` the AC50 was 8.86 µM. `CC(=O)c1cccc(NC(=O)/C=C/c2ccc([N+](=O)[O-])s2)c1` was tested, and the AC50 was 7.16 µM. `O=C(Nc1nc(-c2ccccn2)cs1)c1ccccc1-n1cnnn1` gave an AC50 of 6.96 µM. In the case of `CCOC(=O)COc1ccc2ccccc2c1/C=C/[N+](=O)[O-]`, the AC50 is reported as 8.17 µM. Work on `CCN(Cc1ccccc1)c1ccc(/C=N/N=C(N)N)cc1` yielded an AC50 of 6.37 µM. `C#CCCc1ccccc1/C=[N+](/C)[O-]` showed an AC50 of 9.4 µM. Compound `COC1=C(Nc2ccc(O)cc2)C(=O)c2ccccc2C1=O` has an AC50 of 5.14 µM. With `CN(C)c1nc(C=C(C#N)C#N)c(Cl)n1-c1ccc(F)cc1` the AC50 was 3.92 µM. Work on `CCOC(=O)c1ccc(NC(=O)c2nc(S(=O)(=O)Cc3ccccc3)ncc2Cl)cc1` yielded an AC50 of 9.92 µM. In the case of `CN=c1scc(-c2ccccc2F)n1/N=C/c1ccc[nH]1`, the AC50 is reported as 0.019 µM. `O=C(O)c1ccc(N/N=C/c2ccc3nccnc3c2)cc1` was tested, and the AC50 was 0.696 µM. In the case of `O=C1NC(=O)N(Cc2ccc(F)cc2)C(=O)/C1=C\C=C\c1ccco1`, the AC50 is reported as 6.63 µM. In the case of `C[C@H]1CCC[C@]2(C)C[C@H]3OC(=O)C(CN4CCCCCC4)[C@H]3C=C12` (stereo partly specified), the AC50 is reported as 13.9 µM. Work on `CCCCN(C)CC(O)Cn1cc(/C=C/C(=O)c2cccs2)c2ccccc21` (stereo unspecified) yielded an AC50 of 14.3 µM. `Cn1cc(C(=O)N/N=C/c2c(O)ccc3ccccc23)ccc1=O` showed an AC50 of 2.55 µM. For `CCN1CCN(c2ccc(S(=O)(=O)N3CCCCC3)cc2NC(=O)/C=C/c2ccc([N+](=O)[O-])cc2)CC1`, the AC50 was 7.51 µM. For `Cc1c(C#N)c(NC(=O)CCl)n(Cc2ccc(F)cc2)c1C`, the AC50 was 7.16 µM. Compound `COc1ccccc1C(=O)Nc1nc(-c2ccc(S(=O)(=O)N3CCOCC3)cc2)cs1` has an AC50 of 4.34 µM. `CC(C)c1ccc(/C=N/Nc2ccc(C(=O)O)cc2)cc1` was tested, and the AC50 was 3.53 µM. `Cc1cccc2sc(N(CCCN(C)C)C(=O)c3nc4ccccc4s3)nc12` was tested, and the AC50 was 10.9 µM. `Cc1ccc(C2CC(C(F)(F)F)n3nc(C(=O)NCc4c(C)nn(C)c4C)c(Cl)c3N2)cc1` (stereo unspecified) was tested, and the AC50 was 8.89 µM. `Cn1c(=O)c([N+](=O)[O-])c(-n2ccnc2)c2ccccc21` was tested, and the AC50 was 6.6 µM. Work on `CCCN1CCC(NCc2cn(C)nc2-c2ccc(Oc3ccccc3)cc2)CC1` yielded an AC50 of 8.35 µM. `CC(C)(C)c1ccc(C(=O)Nc2ccc(CC(=O)O)cc2)o1` showed an AC50 of 0.329 µM. In the case of `c1ccc(-c2cn3nc4c(nc3n2)CCCC4)cc1`, the AC50 is reported as 5.89 µM. `O=C(Nc1cc(-c2nc3ncccc3o2)ccc1Cl)c1ccc([N+](=O)[O-])o1` was tested, and the AC50 was 5.76 µM. `Cc1ccc(NC(=O)c2ncn(CCCN[C@H](C)c3cccc4ccccc34)n2)cc1C` gave an AC50 of 22.7 µM. `CC1CN(N=Cc2ccc([N+](=O)[O-])o2)C(=N)O1` (stereo unspecified) gave an AC50 of 24.1 µM. For `CCCCCCN1C=CC(=C2C(=O)c3ccccc3C2=O)C=C1`, the AC50 was 3.86 µM. Compound `Cn1nnnc1Sc1ncnc2scc(-c3cccs3)c12` has an AC50 of 7 µM. In the case of `COc1cc(/C=N/NS(=O)(=O)c2ccc3ccccc3c2)ccc1OCc1ccc(C(=O)O)cc1`, the AC50 is reported as 4.78 µM. `Cc1ccc(C)c(NC(=O)/C(C#N)=C/c2cn(CC(=O)NCc3ccco3)c3ccccc23)c1` showed an AC50 of 6.56 µM. `Oc1ccc(CNc2ccccc2F)c2cccnc12` showed an AC50 of 15.1 µM. In the case of `O=C(/C=C\Nc1ccc2c(c1)OCO2)c1ccccn1`, the AC50 is reported as 2.08 µM. `CCC(=O)NC(c1ccccc1OC)c1ccc2cccnc2c1O` (stereo unspecified) gave an AC50 of 6.7 µM. In the case of `COCCn1c(C)cc(C(=O)COC(=O)c2ccccc2Br)c1C`, the AC50 is reported as 1.14 µM. `CCCc1ccc(-c2ccc(/C=C/C(=O)O)cc2)nc1` gave an AC50 of 0.039 µM. Compound `O=C(CSCC(=O)Nc1ccccc1)N/N=C/c1c(O)ccc2ccccc12` has an AC50 of 3.33 µM. `O=C(CCl)N(c1ccccc1)C1CCS(=O)(=O)C1` (stereo unspecified) was tested, and the AC50 was 9.35 µM. In the case of `CCOc1cc(/C=N/Nc2cccc(C(=O)O)c2)ccc1OC(=O)c1ccccc1`, the AC50 is reported as 1.38 µM. Work on `COc1cccc(-c2nnc3n2N=C(C(C)(C)C)CS3)c1` yielded an AC50 of 4.82 µM. For `CCOc1ccc(OCc2ccc(C(=O)N/N=C(\C)c3ccccn3)cc2)cc1`, the AC50 was 3.64 µM. `O=C(O)c1cccc(NC(=S)N/N=C/c2ccccn2)c1` showed an AC50 of 8.63 µM. In the case of `CCOC(=O)Cn1cc([N+](=O)[O-])nc1[N+](=O)[O-]`, the AC50 is reported as 29.5 µM. Work on `COc1ccc(-c2cc(-c3ccccc3)c(C#N)c(S(C)=O)n2)cc1` (stereo unspecified) yielded an AC50 of 11.8 µM. Work on `Cc1cnc(NC(=O)c2nn(C)cc2[N+](=O)[O-])s1` yielded an AC50 of 20.6 µM. `CCN1CCc2c(sc(NC(=O)c3ccc(S(=O)(=O)N4CCCCCC4)cc3)c2C(=O)NC)C1` was tested, and the AC50 was 16.6 µM. With `COc1ccc2[nH]cc(C(=O)CCl)c2c1` the AC50 was 5.65 µM. With `COc1cc(NC(=O)c2[nH]cnc2C(N)=O)cc(C(=O)Nc2cccc(C(F)(F)F)c2)c1` the AC50 was 10.9 µM. With `CC(C)(C)c1ccc(-c2noc(CCC(=O)NCc3ccco3)n2)cc1` the AC50 was 0.122 µM. `O=c1c(Cl)c(Cl)cnn1-c1ccccc1` was tested, and the AC50 was 9.54 µM. With `CC1CCC(C(C)C)C(OC(=O)Cn2c(-c3ccccc3)[n+](C)c3ccccc32)C1` (stereo unspecified) the AC50 was 2.37 µM. `COc1cc(C(=O)N/N=C(\c2ccccc2)c2ccccn2)cc(OC)c1OC` was tested, and the AC50 was 13.8 µM. Work on `CCNC1=C(Cl)C(=O)c2ccccc2C1=O` yielded an AC50 of 3.84 µM. For `COc1cc2c(cc1O)C(SC)=NC(C)(C)C2`, the AC50 was 11.3 µM. For `CCOC(=O)C(=Cc1ccc(-n2ccnc2)cc1)C(=O)OCC`, the AC50 was 9.38 µM.
